# Results reported in patent publication US9156811B2 (priority 2008, dated 2015).
# Tested on: Trypanosome (T. brucei brucei)
# Test: In-vitro antitrypanosomal efficacy assay (cell growth, resazurin)
# Type: cell-based
# Conditions: T. brucei cell growth
# Method: To column 12, 200 μl media was added to provide a no cells control. Plates were then incubated at 37° C. in an atmosphere of 5% CO2 for 69 hours, before the addition of 20 μl of 500 μM rezasurin solution, and a further incubation period of 4 hours. […] Concentration effect curves were fitted using non-linear regression using XLFit 4.2 and EC50 values determined.
row,Compound,ED50 (μM) T. brucei [µM]
1,Cc1cc([S+](=O)([O-])Nc2c(C)nn(C)c2C)c(Cl)cc1Cl [DDD60006],>1
2,Cc1nn(C)c(C)c1N[S+](=O)([O-])c1cc(C(F)(F)F)cc(C(F)(F)F)c1 [DDD61393],>1
3,CCc1ccc([S+](=O)([O-])Nc2c(C)nn(C)c2C)cc1 [DDD71231],>1
4,Cc1cc([S+](=O)([O-])Nc2c(C)nn(C)c2C)ccc1Br [DDD71235],>1
5,Cc1nn(C)c(C)c1N[S+](=O)([O-])c1c(Cl)cccc1Cl [DDD71239],23.2
6,COc1cc(NC(C)=O)ccc1[S+](=O)([O-])Nc1c(C)nn(C)c1C [DDD71590],>1
7,Cc1nn(C)c(C)c1N[S+](=O)([O-])c1ccc(CNC(=O)c2ccc(Cl)cc2)s1 [DDD73224],>1
8,Cc1nn(C)c(C)c1N[S+](=O)([O-])c1ccc(C#N)cc1Cl [DDD73228],>1
9,Cc1nn(C)c(C)c1N[S+](=O)([O-])c1cc(Cl)cc(Cl)c1O [DDD73229],>1
10,"Cc1nn(C)c(C)c1N[S+](=O)([O-])c1c(Cl)cc(Br)cc1Cl [DDD73234, 4-Bromo-2,6-dichloro-N-(1,3,5-trimethyl-1H-pyrazol-4-yl)-benzenesulfonamide]",14.3
11,"Cc1nn(C)c(C)c1N[S+](=O)([O-])c1ccc(Cl)nc1 [DDD73235, 6-Chloro-pyridine-3-sulfonic acid (1,3,5-trimethyl-1H-pyrazol-4-yl)-amide]",>1
12,Cc1nn(C)c(C)c1N[S+](=O)([O-])c1c(Cl)cc(-c2ccccc2OCC(C)C)cc1Cl [DDD73273],>1
13,COCc1ccccc1-c1cc(Cl)c([S+](=O)([O-])Nc2c(C)nn(C)c2C)c(Cl)c1 [DDD73274],>1
14,Cc1nn(C)c(C)c1N[S+](=O)([O-])c1ccc(NCCc2ccccc2)nc1 [DDD73319],8.4
15,Cc1nn(C)c(C)c1N[S+](=O)([O-])c1c(Cl)cc(-c2ccc(OC(F)(F)F)cc2)cc1Cl [DDD73323],>1
16,Cc1nn(C)c(C)c1N(Cc1ccccc1)[S+](=O)([O-])c1c(Cl)cc(Br)cc1Cl [DDD85601],>1
17,"Cc1nn(C)c(C)c1N[S+](=O)([O-])c1ccc(NCCN2CCN(C)CC2)nc1 [DDD85602, 6-[2-(4-Methyl-piperazin-1-yl)-ethylamino]-pyridine-3-sulfonic acid (1,3,5-trimethyl-1 H-pyrazol-4-yl)-amide]",0.63
18,C#CCN(c1c(C)nn(C)c1C)[S+](=O)([O-])c1c(Cl)cc(Br)cc1Cl [DDD85630],>1
19,CC#CCN(c1c(C)nn(C)c1C)[S+](=O)([O-])c1c(Cl)cc(Br)cc1Cl [DDD85631],>1
20,Cc1nn(C)c(C)c1N[S+](=O)([O-])c1c(Cl)cc(-c2ccc(CN(C)Cc3ccccc3)cc2)cc1Cl [DDD85632],>1
21,Cc1nn(C)c(C)c1N[S+](=O)([O-])c1ccc(NCCN2CCCCC2)nc1 [DDD85635],48.1
22,CCN(c1c(C)nn(C)c1C)[S+](=O)([O-])c1c(Cl)cc(Br)cc1Cl [DDD85637],3.2

row,Compound,ED50 (μM) T. brucei [µM]
1,C=CCN(c1c(C)nn(C)c1C)[S+](=O)([O-])c1c(Cl)cc(Br)cc1Cl [DDD85638],>1
2,CCN(CC)Cc1ccc(-c2cc(Cl)c([S+](=O)([O-])Nc3c(C)nn(C)c3C)c(Cl)c2)cc1 [DDD85639],>1
3,Cc1nn(C)c(C)c1N(CC1OCCO1)[S+](=O)([O-])c1c(Cl)cc(Br)cc1Cl [DDD85641],16.3
4,Cc1ccc(SCc2ccc([S+](=O)([O-])Nc3c(C)nn(C)c3C)cc2)cc1 [DDD85642],>1
5,Cc1nn(C)c(C)c1N[S+](=O)([O-])c1c(Cl)cc(-c2ccc(CN3CCN(C)CC3)cc2)cc1Cl [DDD85644],2.1
6,Cc1nn(C)c(C)c1N[S+](=O)([O-])c1c(Cl)cc(-c2ccc(N3CCNCC3)nc2)cc1Cl [DDD85645],0.23
7,"Cc1nn(C)c(C)c1N[S+](=O)([O-])c1ccc(Br)cc1Cl [DDD86208, 4-Bromo-2-chloro-N-(1,3,5-trimethyl-1H-pyrazol-4-yl)-benzenesulfonamide]",>1
8,"Cc1nn(C)c(C)c1N[S+](=O)([O-])c1c(Cl)cc(-c2ccnc(Cl)c2)cc1Cl [DDD86209, 2,6-Dichloro-4-(2-chloro-pyridin-4-yl)-N-(1,3,5-trimethyl-1H-pyrazol-4-yl)-benzenesulfonamide]",>1
9,"Cc1nn(C)c(C)c1N[S+](=O)([O-])c1c(Cl)cc(-c2ccnc(N3CCN(C)CC3)c2)cc1Cl [DDD86211, 2,6-Dichloro-4-[2-(4-methyl-piperazin-1-yl)-pyridin-4-yl]-N-(1,3,5-trimethyl-1H-pyrazol-4-yl)-benzenesulfonamide]",0.19
10,"Cc1nn(C)c(C)c1N[S+](=O)([O-])c1ccc(-c2ccnc(N3CCNCC3)c2)cc1 [DDD86213, 4-(2-piperazin-1-yl-pyridin-4-yl)-N-(1,3,6-trimethyl-1H-pyrazol-4-yl)-benzenesulfonamide]",0.003
11,Cc1nn(C)c(C)c1N[S+](=O)([O-])c1ccc(NC2CCN(Cc3ccccc3)C2)nc1 (stereo not shown) [DDD86294],>1
12,Cc1nn(C)c(C)c1N[S+](=O)([O-])c1ccc(NC2CCNC2)nc1 (stereo not shown) [DDD86296],>1
13,Cc1nn(C)c(C)c1N[S+](=O)([O-])c1ccc(NCCCN2CCC(N(C)C)C2)nc1 (stereo not shown) [DDD86300],1.73
14,Cc1nn(C)c(C)c1N[S+](=O)([O-])c1ccc(NCCN2CCN(c3ccccc3)CC2)nc1 [DDD86301],>1
15,Cc1nn(C)c(C)c1N[S+](=O)([O-])c1ccc(NCCN2CCNCC2)nc1 [DDD86305],>1
16,Cc1nn(C)c(C)c1N[S+](=O)([O-])c1ccc(N2CCC(N(C)C)C2)nc1 (stereo not shown) [DDD86306],>1
17,Cc1nn(C)c(C)c1N[S+](=O)([O-])c1ccc(N(C)CCO)nc1 [DDD86307],>1
18,"Cc1nn(C)c(C)c1N[S+](=O)([O-])c1c(Cl)cc(-c2ccnc(NCCN(C)C)c2)cc1Cl [DDD86309, 2,6-Dichloro-4-[2-(2-dimethylamino-ethylamino)-pyridin-4-yl]-N-(1,3,5-trimethyl-1H-pyrazol-4-yl)-benzenesulfonamide]",>1
19,"CCN(CC)Cc1cccc(-c2ccc([S+](=O)([O-])Nc3c(C)nn(C)c3C)cc2)c1 [DDD86312, 3′-Diethylaminomethyl-biphenyl-4-sulfonic acid (1,3,5-trimethyl-1H-pyrazol-4-yl)-amide]",0.07
20,"Cc1nn(C)c(C)c1N[S+](=O)([O-])c1ccc(-c2cccc(CN3CCOCC3)c2)cc1 [DDD86314, 3′-Morpholin-4-ylmethyl-biphenyl-4-sulfonic acid (1,3,5-trimethyl-1H-pyrazol-4-yl)-amide]",>1
21,"Cc1nn(C)c(C)c1N[S+](=O)([O-])c1ccc(-c2cccc(CN3CCN(C(=O)OC(C)(C)C)CC3)c2)cc1 [DDD86315, 4-[4′-(1,3,5-Trimethyl-1H-pyrazol-4-ylsulfamoyl)-biphenyl-3-ylmethyl]-piperazine-1-carboxylic acid tert-butyl ester]",>1
